Values quoted from earlier work, collected in article PMC8854719, “Phase 1A/1B dose-escalation and -expansion study to evaluate the safety, pharmacokinetics, food effects and antitumor activity of pamiparib in advanced solid tumours” (British Journal of Cancer, 2021).
Where two headings read alike, the source gives them in different places.

Columns and labels:
[1] = cited from earlier work
[2] = tested on: ovarian cancer; settings: Phase 2 studies, BRCAmut ovarian cancer after prior platinum-based chemotherapy; cited from earlier work
[3] = other monotherapy studies in advanced cancer (rucaparib: anaemia/decreased haemoglobin)
[4] = separate Phase 3 trials in ovarian cancer

Row | Structure (SMILES) | Anaemia, Grade ≥3 [1, 3] | Anaemia, Grade ≥3 [1, 4] | Anaemia, any Grade [1, 4] | ORR [2]
1 | NC(=O)c1cccc2cn(-c3ccc([C@@H]4CCCNC4)cc3)nc12 [niraparib] | 24% | 25% | 50% | 28.0%
2 | O=C(c1cc(Cc2n[nH]c(=O)c3ccccc23)ccc1F)N1CCN(C(=O)C2CC2)CC1 [olaparib] | 17% | 19% | 44% | 31.1%
3 | CNCc1ccc(-c2[nH]c3cc(F)cc4c3c2CCNC4=O)cc1 [rucaparib] | 24.9% | 19% | 37% | 53.8%
